One block for each molecule: values may come before it. Where a SMILES comes first, the peptide text is derived from it.
Target: T1, 20S proteasomes purified from a B-LCL cell line (immunoproteasomes) (Homo sapiens, UniProt P28062+P28065+P40306)
T1 construct: 20S proteasomes were purified from a B-LCL cell line; endogenous in cells; purified after Groettrup et al. 1995
Experiment: In vitro proteasome mediated cleavage analysis
Assay type: biochemical
Parameters: key to Intact in fragment / Intact Fragment: intact epitope found in digestion fragments: (+), present; (-), not present; key to Processing C-term: generation by proteasome-mediated digestion of fragments containing the correct C-terminus: (++) fragments present for >5%; (+) present for <5%; (-) no fragments containing the C-term. were found
Conditions: for Processing C-term: generation by proteasome-mediated digestion of fragments containing the correct C-terminus: 1 h digestion; for Intact Fragment: intact epitope found in digestion fragments: after 1 h digestion; for C-term. generation: generation of C-terminus of the epitope after 1 h digestion; for Intact in fragment: intact epitope found in digestion fragments after 1 h digestion
Experimental: 20S proteasomes were purified from a B-LCL cell line as described by Groettrup et al. (J. Biol. Chem. 270:23808-23815; 1995). This cell type is known to contain immunoproteasomes. High LMP2 and 7 content was confirmed by 2-D immuno-blotting. To assess kinetics, digestions were performed with different incubation periods. Peptides (27 mers, 20 μg) were incubated with 1 μg of purified proteasome at 37° C. for 1 h, 4 h and 24 h in 300 μl proteasome digestion buffer as described (Eggers, et al. 1995. J. Exp. Med. 182:1865). Trifluoroacetic acid was added to stop the digestion and samples were stored at −20° C. before mass spectrometric analysis.
Electrospray ionization mass spectrometry was performed on a hybrid quadrupole time-of-flight mass spectrometer, a Q-TOF (Micromass), equipped with an on-line nanoelectrospray interface with an approximate flow rate of 250 nL/min. Injections were done with a dedicated micro/nano HPLC autosampler, the FAMOS (LC Packings). Digestion solutions were diluted five times in water-methanol-acetic acid (95:5:1, v/v/v), and trapped on the precolumn (MCA-300-05-C8; LC Packings) in water-methanol-acetic acid (95:5:1, v/v/v). Washing of the precolumn was done for 3 min to remove the buffers present in the digests. Subsequently, the trapped analytes were eluted with a steep gradient going from 70% B to 90% B in 10 min, with a flow of 250 nl/min (A: water-methanol-acetic acid (95:5:1, v/v/v); B: water-methanol-acetic acid (10:90:1, v/v/v)). This low elution rate allows for a few additional MS/MS experiments if necessary during the same elution. Mass spectra were recorded from mass 50-2000 Da every second. The resolution allows direct determination of the monoisotopic mass, also from multiple charged ions. The peaks in the mass spectrum were searched in the digested precursor peptide using the Biolynx/proteins software (Micromass). The intensity of the peaks in the mass spectra was used to establish the relative amounts of peptides generated by proteasome digestion.

SMILES: CC(C)C[C@H](NC(=O)[C@H](CO)NC(=O)[C@H](CC(C)C)NC(=O)[C@H](Cc1ccccc1)NC(=O)[C@H](CCC(N)=O)NC(=O)[C@H](CO)NC(=O)[C@@H](NC(=O)[C@H](Cc1ccccc1)NC(=O)[C@@H](N)CCC(N)=O)[C@@H](C)O)C(=O)O
- Processing C-term: generation by proteasome-mediated digestion of fragments containing the correct C-terminus: ++ ((++) fragments present for >5%)
- C-term. generation: ++ (abundant (++) present for >5%)

SMILES: CC[C@H](C)[C@H](NC(=O)[C@H](C)NC(=O)[C@H](CC(C)C)NC(=O)[C@H](C)N)C(=O)N[C@@H](C)C(=O)N[C@@H](C)C(=O)N[C@@H](CC(C)C)C(=O)N[C@@H](CCC(=O)O)C(=O)N[C@@H](CC(C)C)C(=O)O
- Processing C-term: generation by proteasome-mediated digestion of fragments containing the correct C-terminus: -
- Intact Fragment: intact epitope found in digestion fragments: -

SMILES: CC[C@H](C)[C@H](NC(=O)[C@@H]1CCCN1C(=O)[C@@H](N)CCC(=O)O)C(=O)N[C@@H](CC(C)C)C(=O)N[C@@H](CS)C(=O)N1CCC[C@H]1C(=O)N[C@@H](CS)C(=O)N[C@@H](Cc1ccccc1)C(=O)N[C@@H](CCSC)C(=O)O (H-EPILCPCFM-OH)
- Processing C-term: generation by proteasome-mediated digestion of fragments containing the correct C-terminus: -
- Intact Fragment: intact epitope found in digestion fragments: -

SMILES: CC(C)C[C@H](NC(=O)[C@@H](NC(=O)CNC(=O)[C@H](CC(C)C)NC(=O)[C@@H]1CCCN1C(=O)[C@H](CC(C)C)NC(=O)[C@H](CS)NC(=O)[C@@H](NC(=O)[C@H](Cc1ccccc1)NC(=O)[C@@H]1CCCN1)[C@@H](C)O)C(C)C)C(=O)O
- Processing C-term: generation by proteasome-mediated digestion of fragments containing the correct C-terminus: ++ ((++) fragments present for >5%)
- Intact Fragment: intact epitope found in digestion fragments: +
- C-term. generation: ++ (abundant (++) present for >5%)
- Intact in fragment: +

SMILES: CC[C@H](C)[C@H](NC(=O)[C@@H](N)Cc1ccc(O)cc1)C(=O)N[C@@H](C)C(=O)N[C@@H](CCC(N)=O)C(=O)N[C@@H](Cc1ccccc1)C(=O)N[C@H](C(=O)N[C@@H](CO)C(=O)N[C@@H](CCC(N)=O)C(=O)N[C@@H](Cc1ccccc1)C(=O)N[C@@H](CC(C)C)C(=O)O)[C@@H](C)O
- Processing C-term: generation by proteasome-mediated digestion of fragments containing the correct C-terminus: ++ ((++) fragments present for >5%)
- Intact Fragment: intact epitope found in digestion fragments: +
- C-term. generation: ++ (abundant (++) present for >5%)
- Intact in fragment: +

Results, then the molecule that gave them:

- Processing C-term: generation by proteasome-mediated digestion of fragments containing the correct C-terminus: -
- Intact Fragment: intact epitope found in digestion fragments: -
SMILES: CC(C)C[C@H](NC(=O)[C@H](CC(C)C)NC(=O)[C@H](CO)NC(=O)[C@H](CCC(N)=O)NC(=O)CNC(=O)[C@H](C)NC(=O)[C@H](CC(C)C)NC(=O)[C@@H](N)CCC(=O)O)C(=O)N[C@@H](CCCCN)C(=O)O

- C-term. generation: ++ (abundant (++) present for >5%)
- Intact in fragment: +
SMILES: CC[C@H](C)[C@H](NC(=O)[C@H](CO)NC(=O)[C@H](CC(C)C)NC(=O)[C@@H](N)[C@@H](C)O)C(=O)N[C@H](C(=O)N[C@@H](CC(N)=O)C(=O)N[C@@H](CS)C(=O)N[C@@H](CCCNC(=N)N)C(=O)N[C@@H](CC(C)C)C(=O)O)[C@@H](C)O

- Processing C-term: generation by proteasome-mediated digestion of fragments containing the correct C-terminus: -
- Intact Fragment: intact epitope found in digestion fragments: -
SMILES: CC[C@H](C)[C@H](NC(=O)[C@H](CC(C)C)NC(=O)[C@H](Cc1ccc(O)cc1)NC(=O)[C@H](CO)NC(=O)[C@H](Cc1ccccc1)NC(=O)[C@H](CC(C)C)NC(=O)[C@@H](N)CCC(=O)O)C(=O)N[C@@H](CCC(=O)O)C(=O)N[C@@H](CCCCN)C(=O)N[C@H](C(=O)O)C(C)C

- Processing C-term: generation by proteasome-mediated digestion of fragments containing the correct C-terminus: -
- Intact Fragment: intact epitope found in digestion fragments: -
SMILES: CC(C)C[C@H](NC(=O)[C@H](CO)NC(=O)[C@H](CCC(N)=O)NC(=O)CNC(=O)[C@H](C)NC(=O)[C@H](CC(C)C)NC(=O)[C@H](CCC(=O)O)NC(=O)[C@@H](NC(=O)[C@H](CC(C)C)NC(=O)[C@@H](N)CCCNC(=N)N)C(C)C)C(=O)O

— patent US10450356B2, “PRAME derived peptides and immunogenic compositions comprising these” (Academisch Ziekenhuis Leiden H.O.D.N. LUMC, priority 2007, dated 2019)
